# “Also recorded” adds a separate entry of the source.
# How the values were obtained:
# [1] = tested on: BV2 cells; experiment: Phagocytosis of PI-stained dead neurons, BV2 cells (flow cytometry); assay type: cell-based; conditions: for phagocytosis of dead neurons, selective inhibitors alone or combined: BV2 cells (FIG. 6C)
# Description: (§1) Next it was investigated if microglial can phagocytose dead neurons, and to what extent the phagocytosis of dead neurons is enhanced by SHIP inhibitors. Dead neurons were stained with propidium iodide. Propidium iodide is a fluorescent compound that binds to a cell's DNA and can be used to stain dead cells. The phagocytosis of propidium iodide (PI)-stained dead neurons by microglia was investigated by flow cytometry (FIG. 6). […] (FIG. 6C). […] Pan-SHIP inhibition increased phagocytic activity of microglial cells towards dead neurons.
# [2] = tested on: primary microglia; experiment: Phagocytosis of PI-stained dead neurons, primary microglia (flow cytometry); assay type: cell-based, mouse
# Description: as §1
# [3] = tested on: p-mTOR (Ser2448) and p-S6 in BV2 cells; experiment: Western blotting and intracellular flow of signaling kinases, BV2 cells; assay type: cell-based; conditions: for mTOR phosphorylation at Ser2448: microglia (BV2), Western blotting / icFlow
# Description: (§2) Using both Western blotting and intracellular flow (icFlow) assays activation of key signaling kinases that are known to control proliferation, survival and effector functions in immune cells were examined. This included probing for phosphorylated forms of Akt, ERK, mTOR (p-mTOR) and S6 (p-S6). BV2 cells were incubated with a series of pan-SHIP inhibitors. […] In FIG. 8E, the effect of 3AC on BV2 cells is depicted, as assessed by Western Blotting, with actin and HSP90 as loading controls.
# [4] = tested on: primary microglia; experiment: Phagocytosis of FITC-labeled amyloid beta, primary microglia (flow cytometry); assay type: cell-based, mouse; conditions: 16 hours, 1.25 μM, then 1 hour beta amyloid-FITC
# [5] = tested on: AKT, p-mTOR, p-S6 in primary microglia cells; experiment: Expression of signaling kinases, primary microglia; assay type: cell-based, mouse
# Description: as §2
# [6] = tested on: BV2 cells; experiment: Phagocytosis of FITC-labeled amyloid beta (1-42), BV2 cells (flow cytometry, confocal); assay type: cell-based; conditions: for beta amyloid phagocytosis: BV2 cells, 16 hours, 3.75 μM, then 1 hour beta amyloid-FITC
# Description: It was investigated if the enhanced phagocytic activity of microglia towards lysotracker and dead neurons extended to the enhanced phagocytosis of amyloid proteins. Flow cytometric assays were conducted to detect and compare the ability of SHIP inhibitor compounds to enhance the phagocytosis of amyloid beta 1-42 coupled to FITC. These assays provided a means to compare the ability of SHIP inhibitor compounds to promote a crucial effector function of microglia in the brain that is highly relevant for the pathology of Alzheimer's disease.
# Cells were then washed twice and analyzed by flow cytometry for the presence of FITC-labeled amyloid beta (1-42). […] FIG. 7F-H show the confocal images of fixed BV2 cells incubated with beta amyloid with and without K161.
# [7] = tested on: CD11b+CD45low cell population (microglial cells) of the cerebral hemispheres; experiment: K161-treated mice: phagocytic activity of brain cell populations; assay type: in vivo
# Description: In a subsequent experiment, mice were treated twice a week for two weeks with K161. A single cell suspension of the cerebral hemispheres was prepared from K161 (10 mg/kg) and vehicle (H20)-treated mice (n=10/group). Mice were treated twice a week for two weeks, the brains harvested by flow cytometry (FIG. 12A). Box & whisker plots of frequency of single population gated on live cells singlets for markers CD11b, CD45 and ACSA2 (FIG. 12B). The ability of the various cell types to phagocytose dead neurons, beta amyloid and LysoTracker in the absence or presence of K61 are shown in FIG. 12I to 12K. A single cell suspension of the cerebral hemispheres was prepared from K161 (10 mg/kg) and vehicle (H2O)-treated mice (n=10/group). Mice were treated twice a week for two weeks, the brains harvested by flow cytometry. Box & whisker plots of dead neuron (FIG. 12I), beta amyloid (FIG. 12J) and lysotracker assay (FIG. 12K) are shown on a single brain population gated on live cells, singlets and surface markers CD11b, CD45 and ACSA2.
# Therefore, SHIP inhibitors, and particularly those that inhibit both SHIP1 and SHIP2, or selectively SHIP2 (e.g., AS1949490—available from commercial suppliers such as Sigma Aldrich and Tocris), can increase microglial phagocytic capacity to remove dead neurons from the CNS.
# [8] = Detection of K161 in brain tissue by mass spectrometry after single dosing; assay type: in vivo; conditions: mice; for detection in brain tissue: 48 hr or 96 hr after administration, mass spectrometry
# Description: Tissues were harvested 48 hr or 96 hr after administration, and K161 was detected by mass spectrometry and quantitated against a known concentration of K161 spiked into either serum or brain tissue homogenate (FIG. 13A). The calibration curves for K161 are shown in FIGS. 13B and 13C, with the added experimental data points in FIG. 13D. The concentrations of K161 in the brain tissue samples were calculated from the linear characteristics of the standard curve FIG. 13E.
# [9] = Serum levels after single dose IP or oral gavage; assay type: in vivo, mice
# Description: To assess oral bioavailability, K118 and K161 were administered in a single dose of 10 mg/kg either by IP or by oral gavage, and levels of each were measured in serum (FIG. 14).
# [10] = tested on: SIM-A9 cells; experiment: Phagocytosis of PI-stained dead neurons, SIM-A9 cells (flow cytometry); assay type: cell-based; conditions: Torin with K161
# Description: as §1
# [11] = tested on: BV2 cells; experiment: LysoTracker Red staining of lysosomal/phagosomal compartment, BV2 cells (flow cytometry, confocal); assay type: cell-based; conditions: for LysoTrackerRed MFI (phagosomal compartment size): BV2 cells treated 16 hr, 3.75 μM and 5 μM, vs diluent control; for phagosomal compartment size (LysoTrackerRed staining): BV2 cells treated 20 hr, 50 nM LysoTrackerRed
# Description: Flow cytometric assays were conducted to detect and compare the ability of SHIP inhibitor compounds to increase the phagocytic capacity of microglia as determined by LysoTracker Red staining which is preferentially retained and fluoresces in the acidic environment of the lysosomal/phagosomal subcellular compartment. BV2 cells were treated for 20 hr with 3AC, K118 or K149 at the indicated doses vs. their respective diluent controls, washed twice and incubated with 50 nM LysoTrackerRed and then analyzed by flow cytometry (FIG. 5). Histograms of the LysoTrackerRed staining for each compound at the indicated dose or their diluent control (0 μM) are shown. […] K118 repeated towards BV2 cells (FIG. 5D, 5E) and primary microglial cells (FIG. 5F, 5G). BV2 cells were treated for 16 hr with the indicated K118 concentration and incubated with LysoTrackerRed (50 nM), washed twice and then analyzed by flow cytometry and compared to similarly treated vs. their diluent control primary microglia (0.5% DMSO). Histograms of LysoTrackerRed staining for K118 (Red-3.75 μM, Green-5 μM) or diluent control (Blue, shaded) are shown. In FIG. 5E, line and whisker plots are shown for the mean fluorescence intensity (MFI) of LysoTrackerRed staining at the indicated concentrations of K118.
# Pan-SHIP1/2 inhibition increased microglial lysosomal/phagosomal compartment.
# [12] = tested on: BV2 cells; experiment: CCK-8 assay of cell growth, BV2 cells; assay type: cell-based; conditions: 48 hr
# Description: (§3) The ability of 3AC, K118 and K149 to promote the proliferation of BV2 and SIM-A9 microglial cells was tested in vitro. Cells were counted with a cell counting kit-8 (e.g. CCK-8) which is a sensitive colorimetric assays for the determination of cell viability in cell proliferation and cytotoxicity assays. It uses the highly water-soluble tetrazolium salt, WST-8, which is reduced by dehydrogenase activities in cells to give a yellow-color formazan dye, which is soluble in the tissue culture media. The amount of the formazan dye, generated by the activities of dehydrogenases in cells, is directly proportional to the number of living cells.
# (§4) A CCK-8 assay was performed for analysis of cell growth of BV2 cells (FIG. 4A), and SIM-A9 cells (FIG. 4B) vs. their respective vehicle controls (100%) at 48 hr. Each point represents the mean of the 6 replicates for each dose.
# [13] = tested on: SIM-A9 cells; experiment: CCK-8 assay of cell growth, SIM-A9 cells; assay type: cell-based; conditions: 48 hr
# Description: as §3, §4
# [14] = 10 mg/kg twice a week for two weeks, vs vehicle
molecule,measurement,setting,value
CC[C@H]1CC[C@H]2[C@@H]3C[C@@H](O)C4C[C@H](N)CC[C@]4(C)[C@H]3CC[C@]12C (stereo partly shown),melting point,,193 to 195 °C
C[C@H](NC(=O)c1sccc1OCc1ccc(Cl)cc1)c1ccccc1 [AS1949490],"phagocytosis of dead neurons, selective inhibitors alone or combined",[1],"not either of those inhibitors alone, increased phagocytosis"
Cc1c(CCN)c2ccccc2n1Cc1ccccc1Cl.Cl,melting point,,161 to 169 °C
"C[C@@]12CCC[C@H]1C1CC[C@H]3C[C@H](N)[C@H](N)C[C@]3(C)[C@H]1CC2.Cl.Cl (stereo in doubt) [K161, (2R,3S,5S,8R,9S,10S,13S,14S)-10,13-dimethylhexadecahydro-1H-cyclopenta[a]phenanthrene-2,3-diaminium Chloride]",phagocytic activity towards dead neurons,"[2]; primary microglia, 16 hr, 1.25 μM",enhanced the phagocytic activity
same,p-S6 expression,[3]; BV2 cells,increase in p-S6 expression
same,"p-mTOR (Ser2448) expression, mean fluorescence intensity","[3]; BV2 cells, 16 hr, intracellular flow",significantly increased p-MTOR expression
same,mTOR phosphorylation at Ser2448,[3],increase mTOR phosphorylation at Ser2448
same,beta amyloid phagocytosis,[4],Significant increases in beta amyloid phagocytosis
same,activation of AKT,[5],activated AKT
same,activation of p-S6,[5],not p-mTOR or p-S6
same,activation of p-mTOR,[5],not p-mTOR or p-S6
same,beta amyloid phagocytosis,[6],Significant increases in beta amyloid phagocytosis; also recorded: significantly increased
same,"phagosomal component, confocal images",[6]; fixed BV2 cells incubated with beta amyloid,the phagosomal component is increased
same,"ability to phagocytose beta amyloid, CD11b+CD45low cells",[7]; [14],increased ability to phagocytose dead neurons and beta amyloid
same,"ability to phagocytose dead neurons, CD11b+CD45low cells",[7]; [14],increased ability to phagocytose dead neurons and beta amyloid
same,size of the phagosomal compartment in subsets of microglial cells in the brain,[7]; intraperitoneal injection twice a week for two weeks,increased the size of the phagosomal compartment
same,blood brain barrier penetration,[8]; 10 mg/kg IP or oral gavage,can penetrate the blood brain barrier
same,detection in brain tissue,[8]; 10 mg/kg IP,detectable in the brain tissue
same,detection in brain tissue,[8]; 10 mg/kg oral gavage,detectable in the brain tissue
same,"decay in vivo, compared","[9]; mouse, in vivo, 10 mg/kg",decay more rapidly in vivo than K118
same,oral bioavailability,"[9]; single dose 10 mg/kg IP or oral gavage, levels in serum",have oral bioavailability
Torin,effect on K161-enhanced phagocytosis of dead neurons,"[2]; primary microglial cells, Torin with K161",did not abolish the increase in phagocytosis of dead neurons by K161
same,effect on K161-enhanced phagocytosis of dead neurons,[10],did not abolish the increase in phagocytosis of dead neurons by K161
same,effect on K161-enhanced phagocytosis of dead neurons,"[1]; BV2 cells, Torin with K161",did not abolish the increase in phagocytosis of dead neurons by K161
CC(C)CCC[C@@H](C)[C@H]1CC[C@H]2[C@@H]3CCC4C[C@H](N)CC[C@]4(C)[C@H]3CC[C@]12C (stereo partly shown) [3AC],mTOR phosphorylation at Ser2448,[3],increase mTOR phosphorylation at Ser2448
same,LysoTrackerRed MFI (phagosomal compartment size),[11],statistically significant increase in the phagosomal compartment size
same,phagosomal compartment size (LysoTrackerRed staining),[11],only a modest increase
same,"phagocytosis of dead neurons, selective inhibitors alone or combined",[1],"not either of those inhibitors alone, increased phagocytosis"
CSc1ccc2c(c1)c(CCN)c(C)n2Cc1ccc(Cl)cc1Cl [K149],cell growth vs. vehicle control (100%),[12],"showed effects at 2.5, 3.75 and 5 μM concentrations"
same,mTOR phosphorylation at Ser2448,[3],increase mTOR phosphorylation at Ser2448
same,beta amyloid phagocytosis,[6],Significant increases in beta amyloid phagocytosis; also recorded: significantly increased
same,cell growth (proliferation) vs. vehicle control (100%),[13],an effect on proliferation was observed
same,LysoTrackerRed MFI (phagosomal compartment size),[11],statistically significant increase in the phagosomal compartment size
same,phagosomal compartment size (LysoTrackerRed staining),[11],robust increases
